20 substances from the OligoGym collection can be followed below.

Oligonucleotides are given in HELM: sugar(base)linkage, 5' to 3'; d 2'-deoxyribose, r ribose, m 2'-O-methylribose, p phosphate. ss, as = sense and antisense strand

The target in the data set is TMEM63B. Briefly: reporter assay of Huesken 2005. The conditions noted are these: siRNA. For orientation: In a reporter assay the amount or activity of a reporter protein is the signal.
Note: test concentration or dose not given here.

The substance “RNA1{r(C)p.r(U)p.r(G)p.r(U)p.r(G)p.r(G)p.r(A)p.r(C)p.r(C)p.r(C)p.r(C)p.r(A)p.r(G)p.r(A)p.r(A)p.r(G)p.r(C)p.r(A)p.r(A)p.d(T)p.d(T)}|RNA2{r(U)p.r(U)p.r(G)p.r(C)p.r(U)p.r(U)p.r(C)p.r(U)p.r(G)p.r(G)p.r(G)p.r(G)p.r(U)p.r(C)p.r(C)p.r(A)p.r(C)p.r(A)p.r(G)p.d(T)p.d(A)}$$$RNA1{StrandType:ss}|RNA2{StrandType:as}$” gave a normalised inhibition (eCFP-eYFP dual reporter) of 75.4%.

Turning to “RNA1{r(C)p.r(G)p.r(G)p.r(C)p.r(C)p.r(G)p.r(C)p.r(C)p.r(G)p.r(A)p.r(G)p.r(A)p.r(G)p.r(G)p.r(C)p.r(G)p.r(C)p.r(A)p.r(A)p.d(T)p.d(T)}|RNA2{r(U)p.r(U)p.r(G)p.r(C)p.r(G)p.r(C)p.r(C)p.r(U)p.r(C)p.r(U)p.r(C)p.r(G)p.r(G)p.r(C)p.r(G)p.r(G)p.r(C)p.r(C)p.r(G)p.d(A)p.d(G)}$$$RNA1{StrandType:ss}|RNA2{StrandType:as}$”, the normalised inhibition (eCFP-eYFP dual reporter) is 72.9%. With “RNA1{r(A)p.r(A)p.r(G)p.r(A)p.r(U)p.r(C)p.r(A)p.r(A)p.r(G)p.r(A)p.r(A)p.r(G)p.r(C)p.r(A)p.r(U)p.r(U)p.r(U)p.r(U)p.r(G)p.d(T)p.d(T)}|RNA2{r(C)p.r(A)p.r(A)p.r(A)p.r(A)p.r(U)p.r(G)p.r(C)p.r(U)p.r(U)p.r(C)p.r(U)p.r(U)p.r(G)p.r(A)p.r(U)p.r(C)p.r(U)p.r(U)p.d(T)p.d(T)}$$$RNA1{StrandType:ss}|RNA2{StrandType:as}$” the figure was 61.7%.

“RNA1{r(C)p.r(C)p.r(G)p.r(C)p.r(C)p.r(G)p.r(A)p.r(G)p.r(A)p.r(G)p.r(G)p.r(C)p.r(G)p.r(C)p.r(A)p.r(A)p.r(C)p.r(G)p.r(U)p.d(T)p.d(T)}|RNA2{r(A)p.r(C)p.r(G)p.r(U)p.r(U)p.r(G)p.r(C)p.r(G)p.r(C)p.r(C)p.r(U)p.r(C)p.r(U)p.r(C)p.r(G)p.r(G)p.r(C)p.r(G)p.r(G)p.d(C)p.d(C)}$$$RNA1{StrandType:ss}|RNA2{StrandType:as}$” registered a normalised inhibition (eCFP-eYFP dual reporter) of 21.8%. With “RNA1{r(G)p.r(C)p.r(G)p.r(U)p.r(C)p.r(U)p.r(U)p.r(C)p.r(A)p.r(C)p.r(G)p.r(G)p.r(U)p.r(G)p.r(G)p.r(U)p.r(C)p.r(A)p.r(U)p.d(T)p.d(T)}|RNA2{r(A)p.r(U)p.r(G)p.r(A)p.r(C)p.r(C)p.r(A)p.r(C)p.r(C)p.r(G)p.r(U)p.r(G)p.r(A)p.r(A)p.r(G)p.r(A)p.r(C)p.r(G)p.r(C)p.d(A)p.d(C)}$$$RNA1{StrandType:ss}|RNA2{StrandType:as}$” the figure was 75.9%. With “RNA1{r(G)p.r(C)p.r(U)p.r(G)p.r(C)p.r(U)p.r(G)p.r(A)p.r(A)p.r(G)p.r(C)p.r(A)p.r(C)p.r(C)p.r(U)p.r(G)p.r(G)p.r(U)p.r(A)p.d(T)p.d(T)}|RNA2{r(U)p.r(A)p.r(C)p.r(C)p.r(A)p.r(G)p.r(G)p.r(U)p.r(G)p.r(C)p.r(U)p.r(U)p.r(C)p.r(A)p.r(G)p.r(C)p.r(A)p.r(G)p.r(C)p.d(A)p.d(T)}$$$RNA1{StrandType:ss}|RNA2{StrandType:as}$” the figure was 82.4%; with “RNA1{r(A)p.r(A)p.r(C)p.r(C)p.r(A)p.r(C)p.r(C)p.r(A)p.r(U)p.r(U)p.r(G)p.r(C)p.r(C)p.r(A)p.r(A)p.r(C)p.r(U)p.r(U)p.r(G)p.d(T)p.d(T)}|RNA2{r(C)p.r(A)p.r(A)p.r(G)p.r(U)p.r(U)p.r(G)p.r(G)p.r(C)p.r(A)p.r(A)p.r(U)p.r(G)p.r(G)p.r(U)p.r(G)p.r(G)p.r(U)p.r(U)p.d(C)p.d(T)}$$$RNA1{StrandType:ss}|RNA2{StrandType:as}$”, 34.2%. With “RNA1{r(C)p.r(U)p.r(C)p.r(C)p.r(G)p.r(U)p.r(U)p.r(G)p.r(A)p.r(C)p.r(U)p.r(U)p.r(U)p.r(G)p.r(A)p.r(C)p.r(C)p.r(A)p.r(A)p.d(T)p.d(T)}|RNA2{r(U)p.r(U)p.r(G)p.r(G)p.r(U)p.r(C)p.r(A)p.r(A)p.r(A)p.r(G)p.r(U)p.r(C)p.r(A)p.r(A)p.r(C)p.r(G)p.r(G)p.r(A)p.r(G)p.d(C)p.d(T)}$$$RNA1{StrandType:ss}|RNA2{StrandType:as}$” the figure was 98.6%; with “RNA1{r(A)p.r(G)p.r(G)p.r(A)p.r(G)p.r(G)p.r(A)p.r(U)p.r(G)p.r(A)p.r(U)p.r(C)p.r(U)p.r(G)p.r(G)p.r(U)p.r(G)p.r(A)p.r(A)p.d(T)p.d(T)}|RNA2{r(U)p.r(U)p.r(C)p.r(A)p.r(C)p.r(C)p.r(A)p.r(G)p.r(A)p.r(U)p.r(C)p.r(A)p.r(U)p.r(C)p.r(C)p.r(U)p.r(C)p.r(C)p.r(U)p.d(T)p.d(G)}$$$RNA1{StrandType:ss}|RNA2{StrandType:as}$”, 77.4%; with “RNA1{r(C)p.r(G)p.r(U)p.r(G)p.r(U)p.r(U)p.r(A)p.r(C)p.r(A)p.r(A)p.r(C)p.r(G)p.r(U)p.r(G)p.r(G)p.r(C)p.r(U)p.r(C)p.r(G)p.d(T)p.d(T)}|RNA2{r(C)p.r(G)p.r(A)p.r(G)p.r(C)p.r(C)p.r(A)p.r(C)p.r(G)p.r(U)p.r(U)p.r(G)p.r(U)p.r(A)p.r(A)p.r(C)p.r(A)p.r(C)p.r(G)p.d(G)p.d(G)}$$$RNA1{StrandType:ss}|RNA2{StrandType:as}$”, 91.6%. For the substance “RNA1{r(C)p.r(C)p.r(A)p.r(U)p.r(C)p.r(C)p.r(U)p.r(C)p.r(U)p.r(G)p.r(C)p.r(C)p.r(U)p.r(C)p.r(U)p.r(U)p.r(C)p.r(U)p.r(G)p.d(T)p.d(T)}|RNA2{r(C)p.r(A)p.r(G)p.r(A)p.r(A)p.r(G)p.r(A)p.r(G)p.r(G)p.r(C)p.r(A)p.r(G)p.r(A)p.r(G)p.r(G)p.r(A)p.r(U)p.r(G)p.r(G)p.d(G)p.d(C)}$$$RNA1{StrandType:ss}|RNA2{StrandType:as}$”, the normalised inhibition (eCFP-eYFP dual reporter) was 53.2%.

“RNA1{r(C)p.r(U)p.r(U)p.r(C)p.r(U)p.r(U)p.r(U)p.r(U)p.r(C)p.r(C)p.r(A)p.r(C)p.r(C)p.r(A)p.r(U)p.r(G)p.r(C)p.r(G)p.r(C)p.d(T)p.d(T)}|RNA2{r(G)p.r(C)p.r(G)p.r(C)p.r(A)p.r(U)p.r(G)p.r(G)p.r(U)p.r(G)p.r(G)p.r(A)p.r(A)p.r(A)p.r(A)p.r(G)p.r(A)p.r(A)p.r(G)p.d(A)p.d(G)}$$$RNA1{StrandType:ss}|RNA2{StrandType:as}$” came in with a normalised inhibition (eCFP-eYFP dual reporter) of 39.7%.

The substance “RNA1{r(A)p.r(G)p.r(U)p.r(G)p.r(C)p.r(C)p.r(C)p.r(A)p.r(C)p.r(A)p.r(A)p.r(C)p.r(U)p.r(A)p.r(C)p.r(A)p.r(A)p.r(G)p.r(A)p.d(T)p.d(T)}|RNA2{r(U)p.r(C)p.r(U)p.r(U)p.r(G)p.r(U)p.r(A)p.r(G)p.r(U)p.r(U)p.r(G)p.r(U)p.r(G)p.r(G)p.r(G)p.r(C)p.r(A)p.r(C)p.r(U)p.d(G)p.d(A)}$$$RNA1{StrandType:ss}|RNA2{StrandType:as}$” returned a normalised inhibition (eCFP-eYFP dual reporter) of 81.7%. With “RNA1{r(G)p.r(C)p.r(C)p.r(U)p.r(U)p.r(U)p.r(G)p.r(U)p.r(C)p.r(A)p.r(C)p.r(C)p.r(U)p.r(U)p.r(C)p.r(C)p.r(A)p.r(C)p.r(A)p.d(T)p.d(T)}|RNA2{r(U)p.r(G)p.r(U)p.r(G)p.r(G)p.r(A)p.r(A)p.r(G)p.r(G)p.r(U)p.r(G)p.r(A)p.r(C)p.r(A)p.r(A)p.r(A)p.r(G)p.r(G)p.r(C)p.d(C)p.d(A)}$$$RNA1{StrandType:ss}|RNA2{StrandType:as}$” the figure was 72.5%. With “RNA1{r(C)p.r(C)p.r(U)p.r(A)p.r(C)p.r(A)p.r(G)p.r(C)p.r(U)p.r(U)p.r(U)p.r(G)p.r(G)p.r(G)p.r(A)p.r(G)p.r(A)p.r(A)p.r(C)p.d(T)p.d(T)}|RNA2{r(G)p.r(U)p.r(U)p.r(C)p.r(U)p.r(C)p.r(C)p.r(C)p.r(A)p.r(A)p.r(A)p.r(G)p.r(C)p.r(U)p.r(G)p.r(U)p.r(A)p.r(G)p.r(G)p.d(C)p.d(A)}$$$RNA1{StrandType:ss}|RNA2{StrandType:as}$” the figure was 81.9%; with “RNA1{r(G)p.r(G)p.r(A)p.r(U)p.r(G)p.r(A)p.r(U)p.r(G)p.r(A)p.r(G)p.r(A)p.r(U)p.r(C)p.r(C)p.r(G)p.r(G)p.r(G)p.r(A)p.r(C)p.d(T)p.d(T)}|RNA2{r(G)p.r(U)p.r(C)p.r(C)p.r(C)p.r(G)p.r(G)p.r(A)p.r(U)p.r(C)p.r(U)p.r(C)p.r(A)p.r(U)p.r(C)p.r(A)p.r(U)p.r(C)p.r(C)p.d(T)p.d(T)}$$$RNA1{StrandType:ss}|RNA2{StrandType:as}$”, 89.3%. Turning to “RNA1{r(G)p.r(U)p.r(G)p.r(A)p.r(A)p.r(U)p.r(G)p.r(A)p.r(G)p.r(A)p.r(A)p.r(G)p.r(C)p.r(C)p.r(U)p.r(C)p.r(U)p.r(U)p.r(G)p.d(T)p.d(T)}|RNA2{r(C)p.r(A)p.r(A)p.r(G)p.r(A)p.r(G)p.r(G)p.r(C)p.r(U)p.r(U)p.r(C)p.r(U)p.r(C)p.r(A)p.r(U)p.r(U)p.r(C)p.r(A)p.r(C)p.d(C)p.d(T)}$$$RNA1{StrandType:ss}|RNA2{StrandType:as}$”, the normalised inhibition (eCFP-eYFP dual reporter) was 69.3%. Under “RNA1{r(G)p.r(G)p.r(A)p.r(U)p.r(G)p.r(A)p.r(U)p.r(C)p.r(U)p.r(G)p.r(G)p.r(U)p.r(G)p.r(A)p.r(A)p.r(G)p.r(C)p.r(G)p.r(G)p.d(T)p.d(T)}|RNA2{r(C)p.r(C)p.r(G)p.r(C)p.r(U)p.r(U)p.r(C)p.r(A)p.r(C)p.r(C)p.r(A)p.r(G)p.r(A)p.r(U)p.r(C)p.r(A)p.r(U)p.r(C)p.r(C)p.d(T)p.d(C)}$$$RNA1{StrandType:ss}|RNA2{StrandType:as}$” stands 63.9%. In the case of “RNA1{r(A)p.r(A)p.r(C)p.r(G)p.r(U)p.r(G)p.r(C)p.r(C)p.r(U)p.r(A)p.r(C)p.r(C)p.r(A)p.r(U)p.r(G)p.r(A)p.r(U)p.r(C)p.r(A)p.d(T)p.d(T)}|RNA2{r(U)p.r(G)p.r(A)p.r(U)p.r(C)p.r(A)p.r(U)p.r(G)p.r(G)p.r(U)p.r(A)p.r(G)p.r(G)p.r(C)p.r(A)p.r(C)p.r(G)p.r(U)p.r(U)p.d(C)p.d(T)}$$$RNA1{StrandType:ss}|RNA2{StrandType:as}$”, the normalised inhibition (eCFP-eYFP dual reporter) worked out at 80.1%. With “RNA1{r(C)p.r(U)p.r(G)p.r(C)p.r(C)p.r(G)p.r(G)p.r(C)p.r(C)p.r(A)p.r(A)p.r(G)p.r(C)p.r(U)p.r(G)p.r(G)p.r(A)p.r(C)p.r(A)p.d(T)p.d(T)}|RNA2{r(U)p.r(G)p.r(U)p.r(C)p.r(C)p.r(A)p.r(G)p.r(C)p.r(U)p.r(U)p.r(G)p.r(G)p.r(C)p.r(C)p.r(G)p.r(G)p.r(C)p.r(A)p.r(G)p.d(G)p.d(T)}$$$RNA1{StrandType:ss}|RNA2{StrandType:as}$” the figure was 65.2%.
